Assay results reported in patent US20140249056A1, “BILAYERS” (ISIS INNOVATION LIMITED, priority 2009, published 2014).

Columns and labels:
[1] = target: T1, Kv1.3 (K+ channels from lymphocyte membranes) (Homo sapiens, UniProt P22001); test: Bulk current block of voltage-gated potassium channels from lymphocyte (SupT1) membranes in droplet bilayer; type: biochemical; conditions: +50 mV
T1 construct: endogenously expressed voltage-gated potassium channels in primary lymphocytes; endogenous in cells; host or cells: SupT1 cells
T1 sequence (P22001 whole entry): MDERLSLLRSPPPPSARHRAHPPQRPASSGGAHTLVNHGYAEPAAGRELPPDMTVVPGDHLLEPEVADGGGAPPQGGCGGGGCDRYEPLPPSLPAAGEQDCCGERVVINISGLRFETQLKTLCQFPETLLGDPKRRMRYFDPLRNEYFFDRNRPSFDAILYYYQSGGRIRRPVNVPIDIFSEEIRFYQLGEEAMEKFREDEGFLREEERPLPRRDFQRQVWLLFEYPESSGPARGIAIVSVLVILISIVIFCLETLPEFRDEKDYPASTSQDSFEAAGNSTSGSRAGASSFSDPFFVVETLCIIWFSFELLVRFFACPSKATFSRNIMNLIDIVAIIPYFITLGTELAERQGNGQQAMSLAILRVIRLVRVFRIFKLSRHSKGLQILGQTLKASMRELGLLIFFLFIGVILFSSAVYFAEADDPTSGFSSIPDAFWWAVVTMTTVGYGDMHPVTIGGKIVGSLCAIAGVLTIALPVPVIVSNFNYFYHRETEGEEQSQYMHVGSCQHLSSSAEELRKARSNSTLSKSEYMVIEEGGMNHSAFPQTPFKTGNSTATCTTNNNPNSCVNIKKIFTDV
Description: SupT1 cells were grown as a suspension culture and washed four times in buffer (150 mM KCl, 10 mM Hepes, pH 7.5). Cells were then lysed by hypo-osmotic shock, and membranes isolated by centrifugation and washing in isotonic buffer (140 mM KCl, 10 mM Hepes, pH 7.5). Membranes were diluted 1:10^4 and 1 μL of this solution was deposited on an agarose coated coverslip (1.5%). For bulk current blocking 4-aminopyridine a non-specific K+ channel blocker was used (5 mM, +50 mV). For specific blocking Kaliotoxin, a specific Kv-channel blocker, was used (50 μM, +50 mV).

[2] = target: T2, bacterial potassium channel KcsA (Streptomyces lividans, UniProt P0A334); test: Bulk current block of KcsA from E. coli membranes reconstituted in droplet bilayer; type: biochemical; conditions: 150 mM Ba2+ (BaCl2) in droplet, +50 mV, n=5
T2 construct: made in house; host or cells: porin-free E. coli strain PC2889, vector pQE60
T2 sequence (P0A334 1-160): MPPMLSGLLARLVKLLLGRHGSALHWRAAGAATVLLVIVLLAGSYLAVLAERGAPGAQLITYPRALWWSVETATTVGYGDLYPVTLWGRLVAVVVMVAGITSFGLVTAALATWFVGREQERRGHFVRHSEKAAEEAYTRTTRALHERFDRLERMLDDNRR
Description: KcsA was overexpressed in pQE60 (Qiagen, Germany) using a porin-free E. coli strain PC2889. Cells were disintegrated using a pressure-based cell homogenizer (TC5-612, Stansted Fluid Power, UK) and membranes isolated by centrifugation in water before freezing in liquid nitrogen. Sedimented membranes were resuspended in 150 mM KCl, 10 mM Hepes, pH 7.5. Membrane preparations were diluted 1:10^6 (for all cases dilutions are reported as volume:volume unless stated otherwise) and 1:10^8 for bulk and single channel recordings, respectively. Bulk and single channel recording was performed in 150 mM KCl, 10 mM Succinic acid, pH 4. Blocking experiments were performed using droplets containing 150 mM BaCl2, 10 mM Hepes, pH 7.5 (+50 mV, n=5).

Gardos K+ ion channel = target: T3, Gardos K+ ion channel (Homo sapiens, UniProt O15554+P0DP23); test: Ca2+ dependent K+ flux in red blood cell membranes reconstituted in droplet bilayer; type: biochemical; conditions: 5 mM Ca2+ versus none, 150 mM KCl, pH 7, +50 mV, n=5
T3 construct: red blood cells were isolated from whole blood; from tissue; host or cells: red blood cells from whole blood
Description: Following previously published protocol (Gibson et al, J Physiol: 511(Pt1), 225-234 (1998)), red blood cells were isolated from whole blood of Sickle Cell or healthy individuals by centrifugation and washing four times in PBS buffer (137 mM NaCl, 2.7 mM KCl, 10 mM sodium phosphate dibasic, 2 mM potassium phosphate monobasic, pH 7.4, containing 1% glucose), removing remaining blood components by aspiration. Cells were lysed by hypo-osmotic shock in low salt buffer (15 mM NaCl, 10 mM EDTA, 10 mM Hepes, pH 7). Membranes were then sedimented by centrifugation and washed in low salt buffer four times before resuspension into isotonic buffer (150 mM NaCl or KCl or CaCl2, 10 mM Hepes, pH 7.4). For Gardos channel experiments, membranes were resuspended in isotonic buffer containing 150 mM KCl, 10 mM Hepes, pH 7. Droplets with or without Ca^2+ (150 mM KCl, +/−5 mM CaCl2, +/−5 mM KCl, 10 mM Hepes, pH 7, +50 mV, n=5) were used to observe Ca^2+ dependent K^+ flux. […] Further dilution of 1:20 was needed for single channel recordings.

[3] = tested on: KATP channel (Kir6.2 and SUR1); test: Bulk current block of KATP channels from Min6 cell membranes reconstituted in droplet bilayer; type: biochemical; conditions: glibenclamide 1 mM, +50 mV, 140 mM KCl, 10 mM Hepes, pH 7.5, n=5
Description: For KATP channels, Kir6.2 and SUR1 (Sulfonylurea receptor) were co-expressed in Min6 cells. Frozen cells were subjected to three freeze-thaw cycles before they were sonicated for 1 minute (4° C., Sonorex, Bandelin, Germany, 320 W). After isolation of membranes by centrifugation, membranes were washed in isotonic buffer (140 mM KCl, 10 mM Hepes, pH 7.5), and diluted 1:5000. Membranes were incorporated into agarose by mixing (1:10 v:v) with cooling agarose (1.5%) and deposited onto the coverslip prior to device assembly. For single channel recordings the sample was diluted a further 10-fold. Electrical recordings were performed in 140 mM KCl, 10 mM Hepes, pH 7.5 in both droplet and agarose support. Bulk current block was obtained using glybenclamide (1 mM, +50 mV, n=5).

[4] = target: Human NR1-1a/NR2A NMDA receptor (Homo sapiens, UniProt Q05586+Q12879); conditions: glutamate 10 μM and glycine 10 μM added together, +50 mV, bulk current, n=5
Chain of Human NR1-1a/NR2A NMDA receptor (Q12879 23-1464, other chains not shown): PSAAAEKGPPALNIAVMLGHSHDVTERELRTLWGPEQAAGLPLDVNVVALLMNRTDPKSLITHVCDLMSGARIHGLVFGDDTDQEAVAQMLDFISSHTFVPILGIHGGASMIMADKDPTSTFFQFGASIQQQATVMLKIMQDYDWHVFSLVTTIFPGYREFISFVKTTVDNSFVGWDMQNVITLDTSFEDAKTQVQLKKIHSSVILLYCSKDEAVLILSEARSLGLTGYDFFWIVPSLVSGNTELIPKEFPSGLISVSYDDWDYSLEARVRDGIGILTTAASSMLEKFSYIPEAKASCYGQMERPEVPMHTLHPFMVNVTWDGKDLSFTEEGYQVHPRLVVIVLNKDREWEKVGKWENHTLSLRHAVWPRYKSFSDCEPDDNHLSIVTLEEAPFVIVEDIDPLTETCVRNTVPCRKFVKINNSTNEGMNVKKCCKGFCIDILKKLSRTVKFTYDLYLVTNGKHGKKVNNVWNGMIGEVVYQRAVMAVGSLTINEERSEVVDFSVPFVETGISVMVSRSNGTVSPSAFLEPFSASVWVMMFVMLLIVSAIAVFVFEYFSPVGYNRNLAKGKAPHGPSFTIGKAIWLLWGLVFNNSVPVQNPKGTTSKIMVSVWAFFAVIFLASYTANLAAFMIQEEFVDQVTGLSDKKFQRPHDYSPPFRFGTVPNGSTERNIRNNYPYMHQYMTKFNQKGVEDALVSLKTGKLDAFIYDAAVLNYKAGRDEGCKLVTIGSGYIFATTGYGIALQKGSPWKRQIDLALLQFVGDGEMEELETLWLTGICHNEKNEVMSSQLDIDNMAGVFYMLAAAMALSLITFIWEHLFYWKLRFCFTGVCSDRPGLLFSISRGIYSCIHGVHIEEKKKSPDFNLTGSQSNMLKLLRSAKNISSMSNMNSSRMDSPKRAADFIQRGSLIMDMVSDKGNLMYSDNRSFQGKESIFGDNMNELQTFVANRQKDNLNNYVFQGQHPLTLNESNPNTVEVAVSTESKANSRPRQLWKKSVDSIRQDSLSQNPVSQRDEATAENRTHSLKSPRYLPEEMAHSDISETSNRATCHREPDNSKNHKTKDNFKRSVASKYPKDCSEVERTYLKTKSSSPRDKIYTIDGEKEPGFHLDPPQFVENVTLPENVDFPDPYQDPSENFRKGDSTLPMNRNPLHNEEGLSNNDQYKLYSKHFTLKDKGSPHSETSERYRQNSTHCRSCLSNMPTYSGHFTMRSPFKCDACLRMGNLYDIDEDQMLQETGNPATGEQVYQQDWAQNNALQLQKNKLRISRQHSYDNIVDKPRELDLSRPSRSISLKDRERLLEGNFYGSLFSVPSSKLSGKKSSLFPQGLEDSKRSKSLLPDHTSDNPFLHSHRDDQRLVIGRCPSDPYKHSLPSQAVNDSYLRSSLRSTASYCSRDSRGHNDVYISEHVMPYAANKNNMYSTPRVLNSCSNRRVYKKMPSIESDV
Description: Human NR1-1a/NR2A receptor subunits were expressed in a adherent mouse fibroblast 3T3 cell line. After mechanically detaching cells from culture flasks, cells were washed in isotonic buffer (3 times with 140 mM NaCl, 10 mM Hepes, pH 7.5), Cells were then mechanically disrupted by 30 s of ultrasound (Sonorex, Bandelin, Germany, 320 W) and four freeze-thaw cycles. After isolating the membranes by centrifugation and washing in the above buffer, the sample was diluted into the same buffer (1:10^3). […] Upon further dilution of the membrane preparation (1:100) single channels could be recorded (+50 mV applied voltage).

In the case of `Nc1ccncc1` [4-aminopyridine], the “block of bulk current (ion flux reduced)” value ([1]; 5 mM 4-aminopyridine) is reported as 96%.
In the case of `[Ba+2].[Cl-].[Cl-]` [Ba^2+, BaCl2], the block in current [2] is reported as 93%.
In the case of `[Ca+2].[Cl-].[Cl-]` [Ca^2+, CaCl2], the “increase of Ca2+ induced K+ flux” value (Gardos K+ ion channel) is reported as “seven”.
Work on `COc1ccc(Cl)cc1C(=O)NCCc1ccc(S(=O)(=O)NC(=O)NC2CCCCC2)cc1` [glibenclamide] yielded a bulk currents blocked [3] of 91%.
In the case of `NCC(=O)O` [glycine], the “increase in ionic flux” value [4] is reported as 98%.
“Kaliotoxin: a specific Kv-channel blocker” was tested, and the “block of bulk current (ion flux reduced)” value ([1]; 50 μM Kaliotoxin) was 99% and the “block of bulk current (ion flux reduced)” value ([1]; 50 μM Kaliotoxin, listed as KTX) was 99.4%.
